Laboratory results as given in US20230119539A1, “TRACELESS LINKERS AND PROTEIN-CONJUGATES THEREOF” (Regeneron Pharmaceuticals, Inc., priority 2019, published 2023).

Experiments:
[1] = Solubility of quenched linker-payloads; details: Table 3c, linker-payloads quenched with taurine-PEG4-azide or CD-N3
[2] = Solubility of linker-payloads and quenched linker-payloads; assay type: physicochemical; details: quenched linker-payloads, Table 6a
Excerpt: The quenched linker-payloads were water soluble and used for the pH stability test.

[3] = pH stability of quenched linker-payloads in buffers (LCMS); assay type: physicochemical; details: RT
Summary of the method: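 Payloads or quenched linker-payloads at 0.2 mg/mL initial concentration in DMSO/PBS (1/5, v/v) were tested at pH 3, 4, 5, 6, 7.4 and 8.5. Samples were incubated at RT. Stability was monitored by LCMS from 1 hr to 21 days.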

[4] = target: T1, GR (Homo sapiens, UniProt P04150); test: GR luciferase reporter assay in HEK293/GRLuc cells; assay type: cell-based; details: Table 8b, free payloads; for EC50: 48 hours
T1 construct: host or cells: HEK293 (HEK293/GRLuc; HEK293/GRLuc/MSR1 additionally transduced with human MSR1)
T1 sequence (P04150 524-758 limits assumed): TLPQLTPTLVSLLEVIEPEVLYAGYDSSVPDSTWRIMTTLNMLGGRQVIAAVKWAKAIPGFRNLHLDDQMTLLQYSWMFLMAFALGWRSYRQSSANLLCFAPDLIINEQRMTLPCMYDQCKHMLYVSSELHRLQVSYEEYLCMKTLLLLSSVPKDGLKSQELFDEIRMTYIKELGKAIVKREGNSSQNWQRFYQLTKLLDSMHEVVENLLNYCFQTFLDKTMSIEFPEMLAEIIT
Protocol: (§1) Activity of anti-MSR1 ncADCs were tested using an MSR1 ADC steroid responsive luciferase reporter assay. To generate the assay cell line, HEK293 cells were co-transfected with the pBind-GR (Promega, Cat #E158A) and pGL4.35 [Luc2P/9xGAL4UAS/Hygro] (Promega, Cat #E137A) vectors. The pBind-GR vector expresses a fusion protein consisting of the GR ligand binding and the yeast Gal4DNA-binding domain, which binds to the Gal4 upstream activation sequence (UAS) in the luciferase expression vector, that can induce luciferase expression following GR agonist binding. The cells were selected for at least 2 weeks in G418+hygromycin and the resulting cell line is referred to as HEK293/GRLuc. HEK293/GRLuc cells were then transduced with a human MSR1 lentiviral expression vector and 48 hours later cells were sorted for MSR1 positive cells. The resulting cell line is referred to as HEK293/GRLuc/MSR1.
(§2) Three-fold serial dilutions of ncADCs in assay buffer were added to the cells for 48 hours. The last well in the plate served as blank control containing only the assay media and was plotted as a continuation of the 3-fold serial dilution. Luciferase activity was determined using the One-Glo™ reagent (Promega, Cat #E6130). Relative light units (RLUs) were measured on an Envision luminometer (PerkinElmer) and EC50 values were determined using a four-parameter logistic equation over a 10-point dose response curve (GraphPad Prism). The signal to noise (S/N) was determined by taking the ratio of the highest RLU on the dose response curve to the RLU in the untreated wells.
(§3) To test the activity of GR agonist payloads disclosed herein, a cell-based GR responsive luciferase reporter assay was developed as described above.
(§4) Three-fold serial dilutions of free payloads were prepared in 100% DMSO, transferred to fresh assay media, and added to the cells for 48 hours. […] The last well in the plate served as blank control containing only the assay media and 0.2% DMSO (untreated well) and was plotted as a continuation of the 3-fold serial dilution. Luciferase activity was determined using the One-Glo™ reagent (Promega, Cat #E6130). Relative light units (RLUs) were measured on an Envision luminometer (PerkinElmer) and EC50 values were determined using a four-parameter logistic equation over a 10-point dose response curve (GraphPad Prism). The signal to noise (S/N) was determined by taking the ratio of the highest RLU on the dose response curve to the RLU in the untreated wells.

[5] = target: T1, GR; test: GR luciferase reporter assay in HEK293/GRLuc/MSR1 cells; assay type: cell-based; details: Table 8b, free payloads; for S/N: HEK293/GRLuc/MSR1; for EC50: HEK293/GRLuc/MSR1, 48 hours
Protocol: as §1, §2, §3, §4

[6] = Metabolic stability with human liver microsomes; assay type: in vitro ADME; details: for Percent Remaining (%): Mean; for CLint scaled / half-life: human
Protocol: The metabolic stability of payload PIII-1 incubated with human liver microsomes was evaluated and the results were shown in the Table 7e below.

CCCC1O[C@@H]2C[C@H]3[C@@H]4CCC5=CC(=O)C=C[C@]5(C)[C@H]4[C@@H](O)C[C@]3(C)[C@]2(C(=O)COC2CCCN2C(=O)CNC(=O)CCOCCOCCOCCOCCNC(=O)CCC(=O)N2Cc3ccccc3-c3c(nnn3CC3OC4OC5C(CO)OC(OC6C(CO)OC(OC7C(CO)OC(OC8C(CO)OC(OC9C(CO)OC(OC3C(O)C4O)C(O)C9O)C(O)C8O)C(O)C7O)C(O)C6O)C(O)C5O)-c3ccccc32)O1 (stereo partly drawn) [Q2L6-PII-9]
Solubility [1]: >1000 µg/mL | Solubility [2]: >1000 µg/mL | percentage of the remaining compound ([3]; DMSO, 1 Day): 100% | percentage of the remaining compound ([3]; DMSO, 2 Day): 100% | percentage of the remaining compound ([3]; DMSO, 3 Day): 100% | percentage of the remaining compound ([3]; DMSO, 4 Day): 100% | percentage of the remaining compound ([3]; DMSO, 7 Day): 92% | percentage of the remaining compound ([3]; DMSO, 4 hr): 100% | percentage of the remaining compound ([3]; pH 3.0, 1 Day): 0% | percentage of the remaining compound ([3]; pH 3.0, 4 hr): 8% | percentage of the remaining compound ([3]; pH 4.0, 1 Day): 25% | percentage of the remaining compound ([3]; pH 4.0, 2 Day): 8% | percentage of the remaining compound ([3]; pH 4.0, 3 Day): 2% | percentage of the remaining compound ([3]; pH 4.0, 4 Day): 0% | percentage of the remaining compound ([3]; pH 4.0, 4 hr): 71% | percentage of the remaining compound ([3]; pH 5.0, 1 Day): 92% | percentage of the remaining compound ([3]; pH 5.0, 2 Day): 86% | percentage of the remaining compound ([3]; pH 5.0, 3 Day): 82% | percentage of the remaining compound ([3]; pH 5.0, 4 Day): 69% | percentage of the remaining compound ([3]; pH 5.0, 7 Day): 66% | percentage of the remaining compound ([3]; pH 5.0, 4 hr): 100% | percentage of the remaining compound ([3]; pH 7.4, 1 Day): 100% | percentage of the remaining compound ([3]; pH 7.4, 2 Day): 100% | percentage of the remaining compound ([3]; pH 7.4, 3 Day): 100% | percentage of the remaining compound ([3]; pH 7.4, 4 Day): 100% | percentage of the remaining compound ([3]; pH 7.4, 7 Day): 100% | percentage of the remaining compound ([3]; pH 7.4, 1 hr): 100% | percentage of the remaining compound ([3]; pH 7.4, 4 hr): 100%

CCCC1O[C@@H]2C[C@H]3[C@@H]4C[C@H](F)C5=CC(=O)C=C[C@]5(C)[C@@]4(F)[C@@H](O)C[C@]3(C)[C@]2(C(=O)COCNC(=O)CN)O1 (stereo partly drawn) [PIII-1, 2-Amino-N-({2-[(1S,2S,4R,8S,9S,11S,12R,13S,19S)-12,19-difluoro-11-hydroxy-9,13-dimethyl-16-oxo-6-propyl-5,7-dioxapentacyclo[10.8.0.0^2,9.0^4,8.0^13,18]icosa-14,17-dien-8-yl]-2-oxoethoxy}methyl)acetamide]
S/N [4]: 32.1 | EC50 [4]: 0.0465 nM | S/N [5]: 179.3 | EC50 [5]: 0.0545 nM | Percent Remaining (%) ([6]; 0 min): 100.00% | Percent Remaining (%) ([6]; 5 min): 59.35% | Percent Remaining (%) ([6]; 15 min): 23.58% | Percent Remaining (%) ([6]; 30 min): 6.83% | Percent Remaining (%) ([6]; 45 min): 2.68% | CLint scaled [6]: 223 mL/min/kg | half-life [6]: 7.8 min

CCCC1O[C@@H]2C[C@H]3[C@@H]4CCC5=CC(=O)C=C[C@]5(C)[C@H]4[C@@H](O)C[C@]3(C)[C@]2(C(=O)COCNC(=O)CNC(=O)CCC(=O)N2Cc3ccccc3-c3c(nnn3CC3OC4OC5C(CO)OC(OC6C(CO)OC(OC7C(CO)OC(OC8C(CO)OC(OC9C(CO)OC(OC3C(O)C4O)C(O)C9O)C(O)C8O)C(O)C7O)C(O)C6O)C(O)C5O)-c3ccccc32)O1 (stereo partly drawn) [Q2L7-PII-1]
Solubility [1]: >1000 µg/mL | Solubility [2]: >1000 µg/mL | percentage of the remaining compound ([3]; DMSO, 1 Day): 97% | percentage of the remaining compound ([3]; DMSO, 2 Day): 97% | percentage of the remaining compound ([3]; DMSO, 3 Day): 97% | percentage of the remaining compound ([3]; DMSO, 4 Day): 97% | percentage of the remaining compound ([3]; DMSO, 7 Day): 97% | percentage of the remaining compound ([3]; DMSO, 1 hr): 97% | percentage of the remaining compound ([3]; DMSO, 4 hr): 97% | percentage of the remaining compound ([3]; pH 3.0, 1 Day): 100% | percentage of the remaining compound ([3]; pH 3.0, 2 Day): 100% | percentage of the remaining compound ([3]; pH 3.0, 3 Day): 96% | percentage of the remaining compound ([3]; pH 3.0, 4 Day): 95% | percentage of the remaining compound ([3]; pH 3.0, 7 Day): 91% | percentage of the remaining compound ([3]; pH 3.0, 1 hr): 100% | percentage of the remaining compound ([3]; pH 3.0, 4 hr): 100% | percentage of the remaining compound ([3]; pH 4.0, 1 Day): 100% | percentage of the remaining compound ([3]; pH 4.0, 2 Day): 100% | percentage of the remaining compound ([3]; pH 4.0, 3 Day): 100% | percentage of the remaining compound ([3]; pH 4.0, 4 Day): 100% | percentage of the remaining compound ([3]; pH 4.0, 7 Day): 100% | percentage of the remaining compound ([3]; pH 4.0, 1 hr): 100% | percentage of the remaining compound ([3]; pH 4.0, 4 hr): 100% | percentage of the remaining compound ([3]; pH 5.0, 1 Day): 100% | percentage of the remaining compound ([3]; pH 5.0, 2 Day): 100% | percentage of the remaining compound ([3]; pH 5.0, 3 Day): 100% | percentage of the remaining compound ([3]; pH 5.0, 4 Day): 100% | percentage of the remaining compound ([3]; pH 5.0, 7 Day): 100% | percentage of the remaining compound ([3]; pH 5.0, 1 hr): 100% | percentage of the remaining compound ([3]; pH 5.0, 4 hr): 100% | percentage of the remaining compound ([3]; pH 7.4, 1 Day): 100% | percentage of the remaining compound ([3]; pH 7.4, 2 Day): 100% | percentage of the remaining compound ([3]; pH 7.4, 3 Day): 100% | percentage of the remaining compound ([3]; pH 7.4, 4 Day): 100% | percentage of the remaining compound ([3]; pH 7.4, 7 Day): 100% | percentage of the remaining compound ([3]; pH 7.4, 1 hr): 100% | percentage of the remaining compound ([3]; pH 7.4, 4 hr): 100%

CCCC1O[C@@H]2C[C@H]3[C@@H]4C[C@H](F)C5=CC(=O)C=C[C@]5(C)[C@@]4(F)[C@@H](O)C[C@]3(C)[C@]2(C(=O)CO)O1 (stereo partly drawn) [III]
S/N [4]: 34.4 | EC50 [4]: 0.0197 nM | S/N [5]: 156.7 | EC50 [5]: 0.0242 nM | Percent Remaining (%) ([6]; 0 min): 100.00% | Percent Remaining (%) ([6]; 5 min): 16.15% | Percent Remaining (%) ([6]; 15 min): 0.75% | Percent Remaining (%) ([6]; 30 min): 0.76% | Percent Remaining (%) ([6]; 45 min): 0.14% | CLint scaled [6]: 811 mL/min/kg | half-life [6]: 2.14 min
